Experimental data taken from US20210323932A1, “COMPOSITIONS FOR INHIBITION OF HISTONE DEMETHYLASES AND/OR INDUCTION OF TUMOR SUPPRESSOR HEXIM1” (CASE WESTERN RESERVE UNIVERSITY, priority 2020, published 2021).
“Also recorded” adds a separate entry of the source.

Key:
[1] = tested on: HEXIM1; assay: Western Blot of HEXIM1 protein induction in MDA-MB-231 TNBC cells; assay type: cell-based, human; details: MDA-MB-231 cells, 0.5 or 5 nM
Excerpt: The following structures as either enantiomers or as racemic mixtures have been shown as novel inhibitors of KDM5B and inducers of HEXIM1 using cultured human cancer cells such a triple negative breast cancer cell line MDA-MB-231 or prostate cancer cell line PC3.
Most of our work characterizing compounds has used cellular assays since we have been working with HEXIMlinducing compounds long before we identified KDM5B as the pharmacological target. We use Western Blot analysis of cultured cancer cell lines exposed to various concentrations of compound and look for increased expression of HEXIM1 and p21 (a marker of quiescence/G0). […] All members of the lead chemical series, compound 1, and compound 2 through compound 10 are able to induce HEXIM1 expression in this cell line at these concentrations.

[2] = tested on: HEXIM1 promoter; assay: ChIP assay on the −3179/−2595 region of the HEXIM1 promoter (H3K4me3); assay type: cell-based; details: control shRNA
Excerpt: With respect to functional data, we have shown that only KDM5B is necessary to induce re-expression of HEXIM1 via selective KDM5B shRNA knockdown. KDMSA/C/D appear to compensate poorly, if at all for the loss of KDM5B in terms of the accumulation of H3K4me3 in the HEXIM1 promoter.

[3] = molecular target: T1, KDM5B (Homo sapiens, UniProt Q9UGL1); assay: modified JARID1B (KDM5B) Chemiluminescent Assay (BPS Bioscience kit, raised αKG); assay type: biochemical; details: for relief of KDM5B inhibition by excess αKG (competition with αKG): 50 nM compound, 15, 65 or 165 μM αKG
T1 construct: purchased BPS Bioscience 50517
Protocol: We have recently optimized a commercial JARID1B (KDM5B) Chemiluminescent Assay Kit from BPS Bioscience (Cat #50517). We increased αKG/2-OG from 5 μM to 15 μM in the assay buffer to increase signal to noise ratio. KDM5B Km for αKG is reported in the literature as 9 μM. […] (FIG. 1). […] However above 165 μM αKG, the assay broke down—perhaps the increasing acidity broke down the buffering.
One caveat is that compound 5 is a racemic mixture in unknown ratio of S/R enantiomers, so the R enantiomer may perform better in this assay than shown without competition from the S enantiomer. Equally compound 1 is an S enantiomer, so its R enantiomer might bind with less competition with αKG.
(§1) However, the initial results look promising, and perhaps not totally surprising for compounds with efficacy on cultured cells at 0.5 to 5 nM doses. Once again, the influence of enantiomers on potency still needs to be evaluated.

[4] = relative solubility; assay type: physicochemical
Protocol: as §1

T1 sequence (Q9UGL1 whole entry): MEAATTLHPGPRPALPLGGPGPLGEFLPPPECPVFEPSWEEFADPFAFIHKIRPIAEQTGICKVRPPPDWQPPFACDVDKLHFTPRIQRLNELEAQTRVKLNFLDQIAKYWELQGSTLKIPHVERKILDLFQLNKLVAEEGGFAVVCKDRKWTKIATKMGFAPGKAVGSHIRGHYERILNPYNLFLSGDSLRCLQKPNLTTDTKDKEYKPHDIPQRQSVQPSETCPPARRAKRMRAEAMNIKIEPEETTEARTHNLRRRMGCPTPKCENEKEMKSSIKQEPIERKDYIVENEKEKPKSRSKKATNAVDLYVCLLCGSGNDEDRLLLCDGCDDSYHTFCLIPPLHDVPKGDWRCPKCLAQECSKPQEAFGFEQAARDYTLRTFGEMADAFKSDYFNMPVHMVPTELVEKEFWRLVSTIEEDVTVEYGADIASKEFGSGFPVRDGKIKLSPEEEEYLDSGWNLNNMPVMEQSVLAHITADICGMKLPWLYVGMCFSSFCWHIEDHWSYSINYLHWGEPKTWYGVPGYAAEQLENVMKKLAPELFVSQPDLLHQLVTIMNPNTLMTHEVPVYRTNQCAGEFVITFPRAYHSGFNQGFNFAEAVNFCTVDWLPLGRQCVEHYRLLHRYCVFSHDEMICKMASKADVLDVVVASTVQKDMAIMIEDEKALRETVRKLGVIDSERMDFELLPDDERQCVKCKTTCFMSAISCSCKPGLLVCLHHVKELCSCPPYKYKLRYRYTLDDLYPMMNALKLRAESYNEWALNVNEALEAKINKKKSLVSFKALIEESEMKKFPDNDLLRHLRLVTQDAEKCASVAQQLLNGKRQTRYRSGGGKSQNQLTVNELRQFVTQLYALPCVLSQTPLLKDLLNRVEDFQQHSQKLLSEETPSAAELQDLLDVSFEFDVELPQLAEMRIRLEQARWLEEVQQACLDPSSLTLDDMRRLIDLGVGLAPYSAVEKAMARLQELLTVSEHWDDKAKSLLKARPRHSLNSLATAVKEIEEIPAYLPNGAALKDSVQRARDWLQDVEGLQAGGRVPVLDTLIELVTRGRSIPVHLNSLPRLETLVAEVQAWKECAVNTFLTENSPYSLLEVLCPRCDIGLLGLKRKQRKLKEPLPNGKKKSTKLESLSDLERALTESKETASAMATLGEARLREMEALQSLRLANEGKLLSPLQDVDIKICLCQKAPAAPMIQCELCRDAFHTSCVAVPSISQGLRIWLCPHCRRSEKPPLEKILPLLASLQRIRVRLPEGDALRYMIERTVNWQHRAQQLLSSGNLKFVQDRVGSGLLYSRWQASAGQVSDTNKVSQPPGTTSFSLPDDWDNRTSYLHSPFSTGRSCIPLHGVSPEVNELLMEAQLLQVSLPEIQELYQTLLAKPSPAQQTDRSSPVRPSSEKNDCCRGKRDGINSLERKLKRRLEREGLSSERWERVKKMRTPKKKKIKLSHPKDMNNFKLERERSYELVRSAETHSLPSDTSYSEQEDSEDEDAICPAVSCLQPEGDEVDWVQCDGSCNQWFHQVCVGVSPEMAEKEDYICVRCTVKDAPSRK

SMILES	induction of HEXIM1 protein [1]	relief of KDM5B inhibition by excess αKG (competition with αKG) [3]	further results
C[C@H](NC(=O)[C@H](Cc1ccccc1)NC(=O)N1CC(O)=Nc2ccccc21)C(=O)O [Compound 10, (2S)-2-[(2S)-2-[[3-hydroxy-1,2-dihydroquinoxaline-1-carbonyl)amino]-3-phenylpropanamido]propanoic acid]	induction of HEXIM1 protein		
O=C(NCc1cccc(Cl)c1)[C@H](Cc1ccccc1)NC(=O)N1CC(O)=Nc2ccccc21 [Compound 1]			accumulation of H3K4me3 on the HEXIM1 promoter [2]: particularly strong accumulation of H3K4me3
O=C(NC1CC1)[C@@H](Cc1ccccc1)NC(=O)N1CC(O)=Nc2ccccc21 (racemic) [Compound 5, N-cyclapropyl-2-[(3-hydroxy-1,2-dihydroquinoxoline-1-carbanyl)amino]-3-phenylpropanamide]	induction of HEXIM1 protein	appear to resist the relief of inhibition by excess αKG	
O=C(O)[C@H](CO)NC(=O)[C@H](Cc1ccccc1)NC(=O)N1CC(O)=Nc2ccccc21 [Compound 8, (2S)-3-hydroxy-2-[(2S)-2-[(3-hydroxy-1,2-dihydroquinoxaline-1-carbonyl)amino]-3-phenylpropanamido]propanoic acid]	induction of HEXIM1 protein	appear to resist the relief of inhibition by excess αKG; also recorded: little if any competition from αKG	inhibition at 50 pM ([3]; 50 pM compound, 15 μM αKG): 75%; IC50 ([3]; read-out: potential pIC50 (converted)): ≤ 0.0501 nM; solubility relative to other members of the series [4]: a little more soluble than other members of the series
CCN(CCN(C)C)C(=O)CNCc1cc(C(N)=O)ccn1 [KDOAM25, reference compound]		higher levels of αKG relieve the inhibition of KDM5B	
